Experimental findings from patent publication US20100174075A1, “USE OF NITRIC OXIDE-RELEASING STATINS IN THE TREATMENT OF PULMONARY ARTERIAL HYPERTENSION” (NICOX S.A., priority 2007, published 2010) are described below.

The subject of experiment [1] is Human pulmonary artery smooth muscle cells (PASMCs). Briefly: DNA synthesis by [3H-methyl]-thymidine incorporation in PDGF-stimulated PASMCs. The format is cell-based. To be noted: PDGF-BB 5 ng/ml, 24 hours. Here is the method: DNA synthesis was measured by [^3H-methyl]-thymidine incorporation over 24 hours as previously described.
Human pulmonary artery smooth muscle cells (PASMCs) were seeded in 48-well plates at a density of 5×10^4 cells/well in Dulbecc's modified Eagle medium (DMEM) containing 10% fetal bovine […] (FBS). Cells were allowed to adhere overnight, providing a monolayer of approximately 80-90% confluence, and then quiesced for 48 hours with daily changes in serum-free DMEM. Cells were subsequently incubated in fresh medium containing 0.25 μCi/well [^3H-methyl]-thymidine (GE Healthcare, Little Chalfont, Buck's, UK) and treated with pravastatin and NO-releasing pravastatin (Example 1 of WO 2004/105754) at stated concentrations in the presence and absence of recombinant human platelet-derived growth factor-BB (PDGF) (5 ng/ml). Four to six replicates were analysed per treatment and [^3H-methyl]-thymidine uptake determined by liquid scintillation analysis (2200CA TRI-CARB, United Technologies Packcard, Pangbourne, UK).
Background: Dividing cells build labelled thymidine or BrdU into new DNA.

Experiment [2] deals with Endothelin-1 (ET-1) release from PASMCs. Briefly: TGF-β1-stimulated ET-1 release from PASMCs (chemiluminescent immunoassay). As to conditions: 1 μM; TGF-β1 10 ng/ml; PASMCs conditioned medium. The experiment is classed as cell-based, human. Here is the method:
Endothelin-1 (ET-1) release from PASMCs was measured in conditioned media using a chemiluminescent immunoassay system (QuantiGlo®, R&D Systems, UK). Cells were grown to confluence in 24-well plates (5×10^4 cells per well) in DMEM containing 10% FBS and serum-deprived for 24-hours prior to stimulation with transforming growth factor-[…] (TGF-β1) (10 ng/ml) and treatment with pravastatin and NO-releasing pravastatin (Example 1 of WO 2004/105754). Release experiments were also conducted in the presence of mevalonic acid (MVA), farnesylpyrophosphate (FPP), geranylgeranylpyrophosphate (GGPP) and inhibitors of geranylgeranyl transferase (GGTI-2133), farnesyl transferase (FTI-277) and Rho Kinase (Y27632). Production of MMP-9 was induced by dual stimulation with tumour necrosis factor-α (TNF-α) (10 ng/ml) and phorbol 12-[…] 13-acetate (PMA) (0.1 μM) and measured in conditioned medium using a Biotrack® ELISA-based immunoassay (GE Healthcare, UK). In the presence of TGF-β1 (10 ng/ml), ET-1 production by PASMCs increased markedly, compared with control serum-deprived cells.

Regarding `CC[C@H](C)C(=O)O[C@H]1C[C@H](O)C=C2C=C[C@H](C)[C@H](CC[C@@H](O)C[C@@H](O)CC(=O)O)[C@H]21` [Pravastatin], the “[3H-Methyl]-thymidine incorporation (% of PDGF)” value in experiment [1] (1 μM) was 95.0 ± 3.6 % of PDGF; in experiment [1] (5 μM) it was 92.5 ± 4.2 % of PDGF; in experiment [1] (10 μM), 89.5 ± 2.4 % of PDGF. For the same compound, in experiment [2], the “ET-1 (% of TGF-β1)” value was 89.9 ± 12.8 % of TGF-β1.
